Laboratory results published in patent publication US8367873B2, “Phenyl-substituted bicyclooctane-1,3-dione derivatives” (Bayer Cropscience AG, priority 2008, dated 2013).

What was measured:
Assay type in all cases: in vivo
[1] = test system: monocotylidonous and dicotylidonous weed and crop plants; experiment: Herbicidal post-emergence action (other test plants); details: post-emergence method; for herbicidal effect against AVEFA (Avena fatua): 80 g/ha
How it was run: (§1)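 Greenhouse plants in sandy loam sprayed at the one-leaf stage, 2-3 weeks after sowing, with WP-formulated compound at varied rates in 600 l/ha water plus 0.2% wetting agent. Damage scored visually after about three weeks as percent effect versus untreated controls (100% = dead).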

[2] = test system: Alopecurus myosuroides; experiment: Herbicidal post-emergence action; details: post-emergence method; for herbicidal effect against ALOMY (Alopecurus myosuroides): 80 g/ha
How it was run: as §1

[3] = test system: Setaria viridis; experiment: Herbicidal post-emergence action; details: post-emergence method; for herbicidal effect against SETVI (Setaria viridis): 80 g/ha
How it was run: as §1

[4] = test system: Echinocloa crus-galli; experiment: Herbicidal post-emergence action; details: post-emergence method; for herbicidal effect against ECHCG (Echinochloa crus-galli): 80 g/ha
How it was run: as §1

[5] = test system: Lolium multiflorum; experiment: Herbicidal post-emergence action; details: post-emergence method; for herbicidal effect against LOLMU (Lolium multiflorum): 80 g/ha
How it was run: as §1

[6] = test system: Alopecurus myosuroides; experiment: Herbicidal pre-emergence action; details: pre-emergence method, 80 g/ha, greenhouse, visual assessment vs untreated controls
How it was run: (§2)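 Seeds sown in sandy loam and covered with soil; WP-formulated compounds applied as aqueous suspension (600 l/ha water, 0.2% wetting agent) to the soil surface at various rates. Greenhouse-grown; emergence damage scored visually after three weeks versus untreated controls (0% = like control, 100% = plants dead).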

[7] = test system: Setaria viridis; experiment: Herbicidal pre-emergence action; details: pre-emergence method, 80 g/ha, greenhouse, visual assessment vs untreated controls
How it was run: as §2

[8] = test system: Echinocloa crus-galli; experiment: Herbicidal pre-emergence action; details: pre-emergence method, 80 g/ha, greenhouse, visual assessment vs untreated controls
How it was run: as §2

[9] = test system: Lolium multiflorum; experiment: Herbicidal pre-emergence action; details: pre-emergence method, 80 g/ha, greenhouse, visual assessment vs untreated controls
How it was run: as §2

[10] = test system: monocotylidonous and dicotylidonous weed and crop plants; experiment: Herbicidal pre-emergence action (other test plants); details: pre-emergence method, 80 g/ha, greenhouse, visual assessment vs untreated controls
How it was run: as §2

SMILES	herbicidal effect against AVEFA (Avena fatua) [1] [%]	herbicidal effect against ALOMY (Alopecurus myosuroides) [2] [%]	herbicidal effect against SETVI (Setaria viridis) [3] [%]	herbicidal effect against ECHCG (Echinochloa crus-galli) [4] [%]	herbicidal effect against LOLMU (Lolium multiflorum) [5] [%]	herbicidal effect ALOMY [6] [%]	herbicidal effect SETVI [7] [%]	herbicidal effect ECHCG [8] [%]	herbicidal effect LOLMU [9] [%]	herbicidal effect AVEFA [10] [%]	pest or weed control at 80 g/ha ([1]; 504 h, Avena fatua, read-out: herbicidal effect against AVEFA (Avena fatua)) [%]	pest or weed control at 80 g/ha ([2]; Alopecurus myosuroides, 504 h, read-out: herbicidal effect against ALOMY (Alopecurus myosuroides)) [%]	pest or weed control at 80 g/ha ([3]; Setaria viridis, 504 h, read-out: herbicidal effect against SETVI (Setaria viridis)) [%]	pest or weed control at 80 g/ha ([4]; Echinochloa crus-galli, 504 h, read-out: herbicidal effect against ECHCG (Echinochloa crus-galli)) [%]	pest or weed control at 80 g/ha ([5]; Lolium multiflorum, 504 h, read-out: herbicidal effect against LOLMU (Lolium multiflorum)) [%]
CCc1cc(C)cc(CC)c1C1=C(O)C2CC(=NOCC(F)(F)F)CC2C1=O (centres unmarked) [I-a-70]	0	90	60	100	100	80	60	80	80	60					
CCc1cc(C)cc(CC)c1C1=C(OC(C)=O)[C@H]2C[C@@]3(COC(C)(C)O3)C[C@H]2C1=O [I-b-1]						90	70	40	100	40	60	100	40	100	100
CCC(=O)OC1=C(c2c(CC)cc(C)cc2CC)C(=O)C2CC3(COC(C)(C)O3)CC12 (centres unmarked) [I-b-2]	60	100	80	90	100	90	40	30	100	50					
CCc1cc(C)cc(CC)c1C1=C(OC(=O)C(C)C)C2CC3(COC(C)(C)O3)CC2C1=O (centres unmarked) [I-b-3]	40	100	20	100	100	90	50	0	100	60					
CCc1cc(C)cc(CC)c1C1=C(OC(=O)COC)C2CC3(COC(C)(C)O3)CC2C1=O (centres unmarked) [I-b-4]	90	100	60	100	100	90	60	70	100	50					
CCC(=O)OC1=C(c2c(CC)cc(C)cc2CC)C(=O)C2CC3(COC(C)(C)O3)CC12 (centres unmarked) [I-b-6]	100	90	90	100	100	100	60	30	100	80					
CCc1cc(C)cc(CC)c1C1=C(OC(=O)C(C)C)C2CC3(COC(C)(C)O3)CC2C1=O (centres unmarked) [I-b-7]	100	90	90	100	100	100	70	60	100	80					
CCc1cc(C)cc(CC)c1C1=C(OC(=O)C(C)(C)C)C2CC3(COC(C)(C)O3)CC2C1=O (centres unmarked) [I-b-8]	70	90	60	80	100	100	90	90	100	80					
